# According to US9149038B2, “4-amino-6-(heterocyclic)picolinates and 6-amino-2-(heterocyclic)pyrimidine-4-carboxylates and their use as herbicides” (Dow AgroSciences LLC, priority 2013, dated 2015):
# Where two headings read alike, the source gives them in different places.
# Test system: Direct Seeded Rice and weed species
# Assay: Postemergence herbicidal activity in direct seeded rice, visual rating after 20-22 days and probit GR20/GR50/GR80/GR90 (Table 14)
# Assay type: in vivo
# Conditions: for pest or weed control at 17.5 g/ha / pest or weed control at 35 g/ha / pest or weed control at 70 g/ha: post-emergence, 504 h, postemergence; for pest or weed control at 17.5 g/ha: 17.5 g ai/ha; for pest or weed control at 35 g/ha: 35 g ai/ha; for pest or weed control at 70 g/ha: 70 g ai/ha
# Description: Herbicidal evaluations were made visually on a scale of 0 to 100 where 0 represents no activity and 100 represents complete plant death. Seeds or nutlets of the desired test plant species were planted in a soil matrix prepared by mixing a loam soil (43 percent silt, 19 percent clay, and 38 percent sand, with a pH of about 8.1 and an organic matter content of about 1.5 percent) and river sand in an 80 to 20 ratio. The soil matrix was contained in plastic pots with a surface area of 139.7 cm^2. When required to ensure good germination and healthy plants, a fungicide treatment and/or other chemical or physical treatment was applied. The plants were grown for 10-17 d in a greenhouse with an approximate 14-h photoperiod which was maintained at about 29° C. during the day and 26° C. during the night. Nutrients and water were added on a regular basis and supplemental lighting was provided with overhead metal halide 1000-Watt lamps as necessary. The plants were employed for testing when they reached the second or third true leaf stage. A weighed amount, determined by the highest rate to be tested, of each test compound was placed in 25 mL glass vials and dissolved in a volume of 97:3 v/v acetone-DMSO to obtain 12× stock solutions. […] The concentrated stock solutions were added to the spray solutions so that the final acetone and DMSO concentrations were 16.2% and 0.5%, respectively. Spray solutions were diluted to the appropriate final concentrations with the addition of 10 mL of an aqueous mixture of 1.5% (v/v) Agri-dex crop oil concentrate. The final spray solutions contained 1.25% (v/v) Agri-dex crop oil concentrate. Compound requirements are based upon a 12 mL application volume at a rate of 187 L/ha. Formulated compounds were applied to the plant material with an overhead Mandel track sprayer equipped with […] nozzles calibrated to deliver 187 L/ha over an application area of 0.503 square meters (m^2) at a spray height of 18 inches (43 cm) above average plant canopy height. Control plants were sprayed in the same manner with the solvent blank. The treated plants and control plants were placed in a greenhouse as described above and watered by sub-irrigation to prevent wash-off of the test compounds. After 20-22 days, the condition of the test plants, compared with that of the untreated plants, was determined visually and scored on a scale of 0 to 100 percent where 0 corresponds to no injury and 100 corresponds to complete kill and are presented as indicated in Table 4. By applying the well-accepted probit analysis as described by J. Berkson in Journal of the American Statistical Society, 48, 565 (1953) and by D. Finney in “Probit Analysis” Cambridge University Press (1952), herbicidal injury of a specific compound at various rates can be used to calculate GR20, GR50, GR80 and GR90 values, which are defined as growth reduction factors that correspond to the effective dose of herbicide required to provide plant growth reduction (GR) of 20 percent, 50 percent, 80 percent and 90 percent, respectively. Probit analysis was applied to data collected from multiple dose rates of individual compounds utilizing the procedures explained in the following examples. The data for some of the dose rates and analysis of all of the dose rates are captured in the following tables.
# [1] = BRAPP (broadleaf signalgrass, Brachiaria platyphylla), read-out: Visual Growth Reduction (%) 21 Days After Application BRAPP
# [2] = CYPDI (small-flower flatsedge, Cyperus difformis), read-out: Visual Growth Reduction (%) 21 Days After Application CYPDI
# [3] = CYPES (yellow nutsedge, Cyperus esculentus), read-out: Visual Growth Reduction (%) 21 Days After Application CYPES
# [4] = CYPIR (rice flatsedge, Cyperus iria), read-out: Visual Growth Reduction (%) 21 Days After Application CYPIR
# [5] = DIGSA (large crabgrass, Digitaria sanguinalis), read-out: Visual Growth Reduction (%) 21 Days After Application DIGSA
# [6] = ECHCG (barnyardgrass, Echinochloa crus-galli), read-out: Visual Growth Reduction (%) 21 Days After Application ECHCG
# [7] = ECHCO (junglerice, Echinochloa colonum), read-out: Visual Growth Reduction (%) 21 Days After Application ECHCO
# [8] = LEFCH (Chinese sprangletop, Leptochloa chinensis), read-out: Visual Growth Reduction (%) 21 Days After Application LEFCH
# [9] = ORYSJ (Oryza sativa, rice crop), read-out: Visual Growth Reduction (%) 21 Days After Application ORYSJ
# [10] = ORYSK (Oryza sativa, rice crop), read-out: Visual Growth Reduction (%) 21 Days After Application ORYSK
# [11] = SCPJU (Japanese bulrush, Schoenoplectus juncoides Roxb.), read-out: Visual Growth Reduction (%) 21 Days After Application SCPJU
# [12] = SEBEX (hemp sesbania, Sesbania exaltata), read-out: Visual Growth Reduction (%) 21 Days After Application SEBEX
smiles,measurement,setting,value
COC(=O)c1nc(-c2ccc3c(c2F)OC(F)(F)O3)c(F)c(N)c1Cl [Compound 10],GR50 BRAPP,"BRAPP (Brachiaria platyphylla), probit analysis, dose for 50 percent growth reduction",7 g ai/ha
same,GR80 BRAPP,"BRAPP (Brachiaria platyphylla), probit analysis, dose for 80 percent growth reduction",16 g ai/ha
same,GR90 BRAPP,"BRAPP (Brachiaria platyphylla), probit analysis, dose for 90 percent growth reduction",24 g ai/ha
same,GR50 CYPDI,"CYPDI (Cyperus difformis), probit analysis, dose for 50 percent growth reduction",4 g ai/ha
same,GR80 CYPDI,"CYPDI (Cyperus difformis), probit analysis, dose for 80 percent growth reduction",8 g ai/ha
same,GR90 CYPDI,"CYPDI (Cyperus difformis), probit analysis, dose for 90 percent growth reduction",10 g ai/ha
same,GR50 CYPES,"CYPES (Cyperus esculentus), probit analysis, dose for 50 percent growth reduction",<18 g ai/ha
same,GR80 CYPES,"CYPES (Cyperus esculentus), probit analysis, dose for 80 percent growth reduction",<18 g ai/ha
same,GR90 CYPES,"CYPES (Cyperus esculentus), probit analysis, dose for 90 percent growth reduction",<18 g ai/ha
same,GR50 CYPIR,"CYPIR (Cyperus iria), probit analysis, dose for 50 percent growth reduction",6 g ai/ha
same,GR80 CYPIR,"CYPIR (Cyperus iria), probit analysis, dose for 80 percent growth reduction",10 g ai/ha
same,GR90 CYPIR,"CYPIR (Cyperus iria), probit analysis, dose for 90 percent growth reduction",13 g ai/ha
same,GR50 DIGSA,"DIGSA (Digitaria sanguinalis), probit analysis, dose for 50 percent growth reduction",1 g ai/ha
same,GR80 DIGSA,"DIGSA (Digitaria sanguinalis), probit analysis, dose for 80 percent growth reduction",8 g ai/ha
same,GR90 DIGSA,"DIGSA (Digitaria sanguinalis), probit analysis, dose for 90 percent growth reduction",21 g ai/ha
same,GR50 ECHCG,"ECHCG (Echinochloa crus-galli), probit analysis, dose for 50 percent growth reduction",10 g ai/ha
same,GR80 ECHCG,"ECHCG (Echinochloa crus-galli), probit analysis, dose for 80 percent growth reduction",14 g ai/ha
same,GR90 ECHCG,"ECHCG (Echinochloa crus-galli), probit analysis, dose for 90 percent growth reduction",16 g ai/ha
same,GR50 ECHCO,"ECHCO (Echinochloa colonum), probit analysis, dose for 50 percent growth reduction",6 g ai/ha
same,GR80 ECHCO,"ECHCO (Echinochloa colonum), probit analysis, dose for 80 percent growth reduction",14 g ai/ha
same,GR90 ECHCO,"ECHCO (Echinochloa colonum), probit analysis, dose for 90 percent growth reduction",21 g ai/ha
same,GR50 LEFCH,"LEFCH (Leptochloa chinensis), probit analysis, dose for 50 percent growth reduction",12 g ai/ha
same,GR80 LEFCH,"LEFCH (Leptochloa chinensis), probit analysis, dose for 80 percent growth reduction",20 g ai/ha
same,GR90 LEFCH,"LEFCH (Leptochloa chinensis), probit analysis, dose for 90 percent growth reduction",27 g ai/ha
same,GR20 ORYSJ,"ORYSJ (Oryza sativa, rice crop), probit analysis, dose for 20 percent growth reduction",14 g ai/ha
same,GR20 ORYSK,"ORYSK (Oryza sativa, rice crop), probit analysis, dose for 20 percent growth reduction",20 g ai/ha
same,GR50 SCPJU,"SCPJU (Schoenoplectus juncoides Roxb.), probit analysis, dose for 50 percent growth reduction",0.0002 g ai/ha
same,GR80 SCPJU,"SCPJU (Schoenoplectus juncoides Roxb.), probit analysis, dose for 80 percent growth reduction",0.0207 g ai/ha
same,GR90 SCPJU,"SCPJU (Schoenoplectus juncoides Roxb.), probit analysis, dose for 90 percent growth reduction",0.268 g ai/ha
same,GR50 SEBEX,"SEBEX (Sesbania exaltata), probit analysis, dose for 50 percent growth reduction",3 g ai/ha
same,GR80 SEBEX,"SEBEX (Sesbania exaltata), probit analysis, dose for 80 percent growth reduction",8 g ai/ha
same,GR90 SEBEX,"SEBEX (Sesbania exaltata), probit analysis, dose for 90 percent growth reduction",13 g ai/ha
same,pest or weed control at 17.5 g/ha,[1],85 to 94%
same,pest or weed control at 35 g/ha,[1],95 to 100%
same,pest or weed control at 70 g/ha,[1],95 to 100%
same,pest or weed control at 17.5 g/ha,[2],95 to 100%
same,pest or weed control at 35 g/ha,[2],95 to 100%
same,pest or weed control at 70 g/ha,[2],95 to 100%
same,pest or weed control at 17.5 g/ha,[3],95 to 100%
same,pest or weed control at 35 g/ha,[3],95 to 100%
same,pest or weed control at 70 g/ha,[3],95 to 100%
same,pest or weed control at 17.5 g/ha,[4],95 to 100%
same,pest or weed control at 35 g/ha,[4],95 to 100%
same,pest or weed control at 70 g/ha,[4],95 to 100%
same,pest or weed control at 17.5 g/ha,[5],95 to 100%
same,pest or weed control at 35 g/ha,[5],85 to 94%
same,pest or weed control at 70 g/ha,[5],95 to 100%
same,pest or weed control at 17.5 g/ha,[6],95 to 100%
same,pest or weed control at 35 g/ha,[6],95 to 100%
same,pest or weed control at 70 g/ha,[6],95 to 100%
same,pest or weed control at 17.5 g/ha,[7],85 to 94%
same,pest or weed control at 35 g/ha,[7],95 to 100%
same,pest or weed control at 70 g/ha,[7],95 to 100%
same,pest or weed control at 17.5 g/ha,[8],60 to 74%
same,pest or weed control at 35 g/ha,[8],95 to 100%
same,pest or weed control at 70 g/ha,[8],95 to 100%
same,pest or weed control at 17.5 g/ha,[9],0 to 29%
same,pest or weed control at 35 g/ha,[9],60 to 74%
same,pest or weed control at 70 g/ha,[9],75 to 84%
same,pest or weed control at 17.5 g/ha,[10],0 to 29%
same,pest or weed control at 35 g/ha,[10],45 to 59%
same,pest or weed control at 70 g/ha,[10],75 to 84%
same,pest or weed control at 17.5 g/ha,[11],95 to 100%
same,pest or weed control at 35 g/ha,[11],95 to 100%
same,pest or weed control at 70 g/ha,[11],95 to 100%
same,pest or weed control at 17.5 g/ha,[12],95 to 100%
same,pest or weed control at 35 g/ha,[12],95 to 100%
same,pest or weed control at 70 g/ha,[12],95 to 100%
